Data from ChEMBL document CHEMBL1201862, “PubChem BioAssay data set” (2004).
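Results reflect a 48-hour exposure of cells in 96-well plates to compound at five concentrations. GI50: concentration for 50% inhibition of growth.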 Activity calls are given as the source filed them. Cut-off read from the data, not from the text of the source: active = GI50 up to about 1.1 µM and inactive = higher.

How the values were obtained:
Test in all cases: NCI anticancer screen, dose series, 48 h
BT-549 = system: BT-549
CCRF-CEM = system: CCRF-CEM
NCI-H522 = system: NCI-H522
DU-145 = system: DU-145
MDA-MB-231 = system: MDA-MB-231
A549 = system: A549
SNB-19 = system: SNB-19
T47D = system: T47D
NCI/ADR-RES = system: NCI/ADR-RES
NCI-H23 = system: NCI-H23
SF-268 = system: SF-268
PC-3 = system: PC-3
SF-539 = system: SF-539
OVCAR-8 = system: OVCAR-8
786-0 = system: 786-0
UO-31 = system: UO-31
IGROV-1 = system: IGROV-1
SR = system: SR
SK-MEL-28 = system: SK-MEL-28
HL-60 = system: HL-60
U-251 = system: U-251
MDA-MB-435 = system: MDA-MB-435
OVCAR-5 = system: OVCAR-5
SK-MEL-5 = system: SK-MEL-5
HT-29 = system: HT-29
CAKI-1 = system: CAKI-1
MOLT-4 = system: MOLT-4
TK-10 = system: TK-10
COLO 205 = system: COLO 205
SW-620 = system: SW-620
K562 = system: K562
UACC-62 = system: UACC-62
SK-MEL-2 = system: SK-MEL-2
LOX IMVI = system: LOX IMVI
HCT-116 = system: HCT-116
NCI-H460 = system: NCI-H460
RPMI-8226 = system: RPMI-8226
Malme-3M = system: Malme-3M
HOP-62 = system: HOP-62
SN12C = system: SN12C
RXF 393 = system: RXF 393
M14 = system: M14
KM12 = system: KM12
HOP-92 = system: HOP-92
HCC 2998 = system: HCC 2998
HCT-15 = system: HCT-15
SK-OV-3 = system: SK-OV-3
OVCAR-3 = system: OVCAR-3
A498 = system: A498
Hs-578T = system: Hs-578T
MDA-N = system: MDA-N
EKVX = system: EKVX
MCF7 = system: MCF7
ACHN = system: ACHN
SF-295 = system: SF-295
UACC-257 = system: UACC-257

CCOC(=O)CC(C)C(C#N)(OP1(=O)OC(c2ccccc2)C(C)N1C)c1ccccc1 (stereo unspecified)
GI50 (BT-549): 55.1 µM (inactive)
GI50 (CCRF-CEM): 29.9 µM (inactive)
GI50 (NCI-H522): 62.5 µM (inactive)
GI50 (DU-145): 97.5 µM (inactive)
GI50 (MDA-MB-231): 59.7 µM (inactive)
GI50 (A549): 47 µM (inactive)
GI50 (SNB-19): 99.1 µM (inactive)
GI50 (T47D): 30.5 µM (inactive)
GI50 (NCI/ADR-RES): 39.5 µM (inactive)
GI50 (NCI-H23): 66.1 µM (inactive)
GI50 (SF-268): > 100 µM (inactive)
GI50 (PC-3): 33.6 µM (inactive)
GI50 (SF-539): > 100 µM (inactive)
GI50 (OVCAR-8): 46.1 µM (inactive)
GI50 (786-0): 77.8 µM (inactive)
GI50 (UO-31): 35.4 µM (inactive)
GI50 (IGROV-1): 55.2 µM (inactive)
GI50 (SR): 48.6 µM (inactive)
GI50 (SK-MEL-28): 81.7 µM (inactive)
GI50 (HL-60): 34.9 µM (inactive)
GI50 (U-251): 49 µM (inactive)
GI50 (MDA-MB-435): 61 µM (inactive)
GI50 (OVCAR-5): > 100 µM (inactive)
GI50 (SK-MEL-5): 47.6 µM (inactive)
GI50 (HT-29): 57.7 µM (inactive)
GI50 (CAKI-1): 81.5 µM (inactive)
GI50 (MOLT-4): 28.8 µM (inactive)
GI50 (TK-10): 68.7 µM (inactive)
GI50 (COLO 205): 18.5 µM (inactive)
GI50 (SW-620): 54.7 µM (inactive)
GI50 (K562): 32.1 µM (inactive)
GI50 (UACC-62): 58.7 µM (inactive)
GI50 (SK-MEL-2): 34.1 µM (inactive)
GI50 (LOX IMVI): 55.3 µM (inactive)
GI50 (HCT-116): 50.2 µM (inactive)
GI50 (NCI-H460): 47.4 µM (inactive)
GI50 (RPMI-8226): 36.3 µM (inactive)
GI50 (Malme-3M): 85.1 µM (inactive)
GI50 (HOP-62): > 100 µM (inactive)
GI50 (SN12C): 58.9 µM (inactive)
GI50 (RXF 393): 67.5 µM (inactive)
GI50 (M14): 68.5 µM (inactive)
GI50 (KM12): 45.8 µM (inactive)
GI50 (HOP-92): 17.8 µM (inactive)
GI50 (HCC 2998): 36 µM (inactive)
GI50 (HCT-15): 43.7 µM
GI50 (SK-OV-3): 86.7 µM (inactive)
GI50 (OVCAR-3): 50.7 µM (inactive)
GI50 (A498): 65.3 µM (inactive)
GI50 (Hs-578T): 83.6 µM (inactive)
GI50 (MDA-N): > 100 µM (inactive)
GI50 (EKVX): 62.2 µM (inactive)
GI50 (MCF7): 37.8 µM (inactive)
GI50 (ACHN): 44.1 µM (inactive)
GI50 (SF-295): 46.9 µM (inactive)
GI50 (UACC-257): 41.3 µM (inactive)
